Target: T1, leukotriene (LTD4) induced contraction of guinea pig tracheal tissues (Cavia porcellus, UniProt Q2NNR5)
T1 construct: Guinea pig (adult male albino Hartley strain) tracheal spiral strips; from tissue; host or cells: guinea pig (adult male albino Hartley strain) tracheal spiral strips
T1 sequence (Q2NNR5 1-340): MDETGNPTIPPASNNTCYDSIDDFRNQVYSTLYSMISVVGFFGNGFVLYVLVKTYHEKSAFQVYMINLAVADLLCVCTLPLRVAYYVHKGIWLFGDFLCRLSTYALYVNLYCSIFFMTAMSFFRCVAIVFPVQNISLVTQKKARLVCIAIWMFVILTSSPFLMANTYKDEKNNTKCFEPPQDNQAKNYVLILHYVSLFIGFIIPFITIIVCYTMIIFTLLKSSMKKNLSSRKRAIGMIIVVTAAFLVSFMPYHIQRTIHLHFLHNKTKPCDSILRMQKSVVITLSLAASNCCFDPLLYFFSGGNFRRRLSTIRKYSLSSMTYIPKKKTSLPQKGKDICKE
Assay: Inhibition of LTD4-induced contraction of guinea pig tracheal tissues in vitro
Assay type: cell-based, Guinea pig (adult male albino Hartley strain)
Settings: LTD4 cumulative concentration-response; guinea pig tracheal spiral strips; 30 min pretreatment with test compound; meclofenamic acid 1 μM; EC30 relative to carbachol 10 μM; read-out: pA2 (converted)
Description: The leukotriene antagonist activity of the compounds of formula (II) is measured by the ability of the compound to inhibit leukotriene induced contraction of guinea pig tracheal tissues in vitro. The following methodology was employed:
In vitro: Guinea pig (adult male albino Hartley strain) tracheal spiral strips of approximate dimensions 2 to 3 mm cross-sectional width and 3.5 cm length were bathed in modified Krebs buffer in jacketed 10 ml tissue bath and continously aerated with 95% O2 /5% CO2. The tissues were connected via silk suture to force displacement transducers for recording isometric tension. The tissues were equilibrated for 1 hr., pretreated for 15 minutes with meclofenamic acid (1 μM) to remove intrinsic prostaglandin responses, and then pretreated for an additional 30 minutes with either the test compound or vehicle control. A cumulative concentration-response curve for LTD4 on triplicate tissues was generated by successive increases in the bath concentration of the LTD4. In order to minimize intertissue variability, the contractions elicited by LTD4 were standardized as a percentage of the maximum response obtained to a reference agonist, carbachol (10 μM).
Calculations: The averages of the triplicate LTD4 concentration-response curves both in the presence and absence of the test compound were plotted on log graph paper. The concentration of LTD4 needed to elicit 30% of the contraction elicited by carbachol was measured and defined as the EC30. The pA2 value for the test compound as determined by the following equations: [formula]

SMILES: CCCCCCCCCCCC/C=C\C(CO)SCCC(=O)O (stereo not drawn) [2-[(2-Carboxyethyl)thio]-3(Z)-hexadecen-1-ol]
- Kb: 5010 nM

SMILES: CCCCCCCCCCCC/C=C\C(SCCC(=O)O)C(=O)O (stereo not drawn) [2-[(2-Carboxyethyl)thio]-3(Z)-hexadecenoic acid]
- Kb: 1000 nM

SMILES: CCCCCCCCCCCC/C=C\C(SCCC(=O)O)C(O)CC(=O)O (stereo not drawn) [3-Hydroxy-4-[(2-carboxyethyl)thio]-5(Z)-octadecenoic acid]
- Kb: 794 nM
